From ChEMBL document CHEMBL4699440, “Comprehensive review on the anti-bacterial activity of 1,2,3-triazole hybrids” (Eur J Med Chem, 2019) come the findings set out here.

Converted amounts (≈) assume the structure as drawn.

For orientation: IC50 means the concentration that gives 50% inhibition. A high value points to weaker potency in that assay. Usually MIC stands for the least concentration at which growth counts as inhibited. Higher therefore signals weaker potency.

One assay deals with KB. As to the kind of experiment: Cytotoxicity against human KB cells. In kind it is cell-based. The note with it: Homo sapiens, KB.
Assay [1] concerns Staphylococcus aureus. As to the kind of experiment: Antibacterial activity against Staphylococcus aureus. In kind it is functional.
In another assay the test system is Bacillus cereus. The assay is described as follows: Antibacterial activity against Bacillus cereus. In kind it is functional.
The subject of the next assay is Pseudomonas aeruginosa. As to the kind of experiment: Antibacterial activity against Pseudomonas aeruginosa assessed as inhibition zone at 1 mg/ml measured after overnight incubation by disc diffusion method. In kind it is functional. The note with it: read-out: IZ.
A further assay concerns Bacillus subtilis. As to the kind of experiment: Antibacterial activity against Bacillus subtilis assessed as inhibition zone at 1 mg/ml measured after overnight incubation by disc diffusion method. In kind it is functional. The note with it: read-out: IZ. Background: A growth-free zone around the sample is the usual read-out of agar diffusion tests.
The test system of assay [2] is Staphylococcus aureus. The assay is described as follows: Antibacterial activity against Staphylococcus aureus assessed as inhibition zone at 1 mg/ml measured after overnight incubation by disc diffusion method. In kind it is functional. The note with it: read-out: IZ.
A further assay has as its system Escherichia coli. The assay is described as follows: Antibacterial activity against Escherichia coli assessed as inhibition zone at 1 mg/ml measured after overnight incubation by disc diffusion method. In kind it is functional. The note with it: read-out: IZ.

Compound `CC(C)C[C@H](NC(=O)CNC(=O)C(C)(C)NC(=O)[C@@H](NC(=O)C(C)(C)NC(=O)[C@H](CCC(N)=O)NC(=O)[C@H](C)NC(=O)C(C)(C)NC(=O)[C@H](C)NC(=O)C(C)(C)NC(=O)[C@@H]1CCN(C(=O)C(C)(C)n2cc(-c3ccccc3C(F)(F)F)nn2)C1)C(C)C)C(=O)NC(C)(C)C(=O)N1CCC[C@@H]1C(=O)N[C@H](C(=O)NC(C)(C)C(=O)NC(C)(C)C(=O)N[C@@H](CCC(N)=O)C(=O)N[C@@H](CCC(N)=O)C(=O)N[C@H](CO)Cc1ccccc1)C(C)C` registered an IC50 in the assay on KB of 2.9 µg/mL (≈ 1.37 µM). Moreover, the MIC against Staphylococcus aureus [1] and against Bacillus cereus was 1.56 µg/mL (≈ 0.737 µM) throughout.
In turn, `CC(C)C[C@H](NC(=O)CNC(=O)C(C)(C)NC(=O)[C@@H](NC(=O)C(C)(C)NC(=O)[C@H](CCC(N)=O)NC(=O)[C@H](C)NC(=O)C(C)(C)NC(=O)[C@H](C)NC(=O)C(C)(C)NC(=O)[C@@H]1CCN(C(=O)C(C)(C)n2cc(-c3ccc(F)c(F)c3)nn2)C1)C(C)C)C(=O)NC(C)(C)C(=O)N1CCC[C@@H]1C(=O)N[C@H](C(=O)NC(C)(C)C(=O)NC(C)(C)C(=O)N[C@@H](CCC(N)=O)C(=O)N[C@@H](CCC(N)=O)C(=O)N[C@H](CO)Cc1ccccc1)C(C)C` displayed an IC50 with KB of 2.9 µg/mL (≈ 1.39 µM). For the same compound, the MIC against Staphylococcus aureus [1] and in the assay with Bacillus cereus was 1.56 µg/mL (≈ 0.748 µM) throughout.
Take `CC(C)C[C@H](NC(=O)CNC(=O)C(C)(C)NC(=O)[C@@H](NC(=O)C(C)(C)NC(=O)[C@H](CCC(N)=O)NC(=O)[C@H](C)NC(=O)C(C)(C)NC(=O)[C@H](C)NC(=O)C(C)(C)NC(=O)[C@@H]1CCN(C(=O)C(C)(C)n2cc(-c3ccc(OC(F)(F)F)c(F)c3)nn2)C1)C(C)C)C(=O)NC(C)(C)C(=O)N1CCC[C@@H]1C(=O)N[C@H](C(=O)NC(C)(C)C(=O)NC(C)(C)C(=O)N[C@@H](CCC(N)=O)C(=O)N[C@@H](CCC(N)=O)C(=O)N[C@H](CO)Cc1ccccc1)C(C)C`: the IC50 with KB amounted to 2.9 µg/mL (≈ 1.35 µM). Also, the MIC in the assay on Staphylococcus aureus [1] and with Bacillus cereus was 1.56 µg/mL (≈ 0.725 µM) throughout.
In the case of `COc1ccc2ccc(-c3cn(C(C)(C)C(=O)N4CC[C@@H](C(=O)NC(C)(C)C(=O)N[C@@H](C)C(=O)NC(C)(C)C(=O)N[C@@H](C)C(=O)N[C@@H](CCC(N)=O)C(=O)NC(C)(C)C(=O)N[C@H](C(=O)NC(C)(C)C(=O)NCC(=O)N[C@@H](CC(C)C)C(=O)NC(C)(C)C(=O)N5CCC[C@@H]5C(=O)N[C@H](C(=O)NC(C)(C)C(=O)NC(C)(C)C(=O)N[C@@H](CCC(N)=O)C(=O)N[C@@H](CCC(N)=O)C(=O)N[C@H](CO)Cc5ccccc5)C(C)C)C(C)C)C4)nn3)cc2c1`, the IC50 in the assay on KB amounted to 2.9 µg/mL (≈ 1.36 µM). The MIC against Staphylococcus aureus [1] and against Bacillus cereus was 1.56 µg/mL (≈ 0.733 µM) each time.
Regarding `CC(C)C[C@H](NC(=O)CNC(=O)C(C)(C)NC(=O)[C@@H](NC(=O)C(C)(C)NC(=O)[C@H](CCC(N)=O)NC(=O)[C@H](C)NC(=O)C(C)(C)NC(=O)[C@H](C)NC(=O)C(C)(C)NC(=O)[C@@H]1CCN(C(=O)C(C)(C)n2cc(-c3ccc(-c4ccccc4)cc3)nn2)C1)C(C)C)C(=O)NC(C)(C)C(=O)N1CCC[C@@H]1C(=O)N[C@H](C(=O)NC(C)(C)C(=O)NC(C)(C)C(=O)N[C@@H](CCC(N)=O)C(=O)N[C@@H](CCC(N)=O)C(=O)N[C@H](CO)Cc1ccccc1)C(C)C`, half-maximal inhibition in the assay with KB (IC50) was put at 2.9 µg/mL (≈ 1.36 µM). Also, the MIC in the assay on Staphylococcus aureus [1] and in the assay on Bacillus cereus was 1.56 µg/mL (≈ 0.734 µM) throughout.
With `CC(C)C[C@H](NC(=O)CNC(=O)C(C)(C)NC(=O)[C@@H](NC(=O)C(C)(C)NC(=O)[C@H](CCC(N)=O)NC(=O)[C@H](C)NC(=O)C(C)(C)NC(=O)[C@H](C)NC(=O)C(C)(C)NC(=O)[C@@H]1CCN(C(=O)C(C)(C)n2cc(-c3cc(F)cc(F)c3)nn2)C1)C(C)C)C(=O)NC(C)(C)C(=O)N1CCC[C@@H]1C(=O)N[C@H](C(=O)NC(C)(C)C(=O)NC(C)(C)C(=O)N[C@@H](CCC(N)=O)C(=O)N[C@@H](CCC(N)=O)C(=O)N[C@H](CO)Cc1ccccc1)C(C)C`, in the assay with KB, half-maximal inhibition (IC50) was put at 2.9 µg/mL (≈ 1.39 µM). Besides, the MIC with Staphylococcus aureus [1] and in the assay on Bacillus cereus was 1.56 µg/mL (≈ 0.748 µM) throughout.
On to `CC(C)C[C@H](NC(=O)CNC(=O)C(C)(C)NC(=O)[C@@H](NC(=O)C(C)(C)NC(=O)[C@H](CCC(N)=O)NC(=O)[C@H](C)NC(=O)C(C)(C)NC(=O)[C@H](C)NC(=O)C(C)(C)NC(=O)[C@@H]1CCN(C(=O)C(C)(C)n2cc(-c3ccc(C(F)(F)F)cc3)nn2)C1)C(C)C)C(=O)NC(C)(C)C(=O)N1CCC[C@@H]1C(=O)N[C@H](C(=O)NC(C)(C)C(=O)NC(C)(C)C(=O)N[C@@H](CCC(N)=O)C(=O)N[C@@H](CCC(N)=O)C(=O)N[C@H](CO)Cc1ccccc1)C(C)C`, for which, in the assay with KB, the IC50 was determined as 2.9 µg/mL (≈ 1.37 µM). Also, the MIC in the assay with Staphylococcus aureus [1] and in the assay on Bacillus cereus was 12.5 µg/mL (≈ 5.9 µM) throughout.
With `c1ccc(-c2nnc(-c3ccccc3NCc3cn(C4CCCCC4)nn3)o2)cc1`, the zone of inhibition at 1000 µg/mL with Pseudomonas aeruginosa, in the assay with Bacillus subtilis, in the assay on Staphylococcus aureus [2] and in the assay on Escherichia coli was 2.5 mm throughout.
Take `Clc1cccc(-n2cc(CNc3ccccc3-c3nnc(-c4ccccc4)o3)nn2)c1`: the zone of inhibition at 1000 µg/mL with Pseudomonas aeruginosa, in the assay on Bacillus subtilis, with Staphylococcus aureus [2] and in the assay on Escherichia coli was 2.5 mm each time.
Turning to `CC(C)C[C@H](NC(=O)CNC(=O)C(C)(C)NC(=O)[C@@H](NC(=O)C(C)(C)NC(=O)[C@H](CCC(N)=O)NC(=O)[C@H](C)NC(=O)C(C)(C)NC(=O)[C@H](C)NC(=O)C(C)(C)NC(=O)[C@@H]1CCN(C(=O)C(C)(C)n2cc(-c3ccccc3)nn2)C1)C(C)C)C(=O)NC(C)(C)C(=O)N1CCC[C@@H]1C(=O)N[C@H](C(=O)NC(C)(C)C(=O)NC(C)(C)C(=O)N[C@@H](CCC(N)=O)C(=O)N[C@@H](CCC(N)=O)C(=O)N[C@H](CO)Cc1ccccc1)C(C)C`, the IC50 with KB is 2.9 µg/mL (≈ 1.42 µM). The MIC in the assay on Staphylococcus aureus [1] and in the assay on Bacillus cereus was 1.56 µg/mL (≈ 0.761 µM) in each case.
As to `Cc1ccc(-n2cc(CNc3ccccc3-c3nnc(-c4ccccc4)o3)nn2)cc1`, the zone of inhibition at 1000 µg/mL in the assay with Pseudomonas aeruginosa, with Bacillus subtilis, in the assay with Staphylococcus aureus [2] and in the assay with Escherichia coli was 2.5 mm each time.
For `CC(C)C[C@H](NC(=O)CNC(=O)C(C)(C)NC(=O)[C@@H](NC(=O)C(C)(C)NC(=O)[C@H](CCC(N)=O)NC(=O)[C@H](C)NC(=O)C(C)(C)NC(=O)[C@H](C)NC(=O)C(C)(C)NC(=O)[C@@H]1CCN(C(=O)C(C)(C)n2cc(-c3cc4ccccc4c4ccccc34)nn2)C1)C(C)C)C(=O)NC(C)(C)C(=O)N1CCC[C@@H]1C(=O)N[C@H](C(=O)NC(C)(C)C(=O)NC(C)(C)C(=O)N[C@@H](CCC(N)=O)C(=O)N[C@@H](CCC(N)=O)C(=O)N[C@H](CO)Cc1ccccc1)C(C)C`, the midpoint of inhibition with KB, the IC50, lay at 2.9 µg/mL (≈ 1.35 µM). Moreover, the MIC against Staphylococcus aureus [1] and in the assay with Bacillus cereus was 1.56 µg/mL (≈ 0.726 µM) in each case.
Turning to `Clc1ccc(-n2cc(CNc3ccccc3-c3nnc(-c4ccccc4)o3)nn2)cc1`, the zone of inhibition at 1000 µg/mL with Pseudomonas aeruginosa, with Bacillus subtilis, with Staphylococcus aureus [2] and in the assay with Escherichia coli was 2.5 mm in each case.
Turning to `c1ccc(Cn2cc(CNc3ccccc3-c3nnc(-c4ccccc4)o3)nn2)cc1`, the zone of inhibition at 1000 µg/mL in the assay on Pseudomonas aeruginosa, with Bacillus subtilis, with Staphylococcus aureus [2] and in the assay with Escherichia coli was 2.5 mm each time.
Compound `CC(C)C[C@H](NC(=O)CNC(=O)C(C)(C)NC(=O)[C@@H](NC(=O)C(C)(C)NC(=O)[C@H](CCC(N)=O)NC(=O)[C@H](C)NC(=O)C(C)(C)NC(=O)[C@H](C)NC(=O)C(C)(C)NC(=O)[C@@H]1CCN(C(=O)C(C)(C)n2cc(-c3cccc(C(F)(F)F)c3)nn2)C1)C(C)C)C(=O)NC(C)(C)C(=O)N1CCC[C@@H]1C(=O)N[C@H](C(=O)NC(C)(C)C(=O)NC(C)(C)C(=O)N[C@@H](CCC(N)=O)C(=O)N[C@@H](CCC(N)=O)C(=O)N[C@H](CO)Cc1ccccc1)C(C)C` came in with an IC50 with KB of 2.9 µg/mL (≈ 1.37 µM). In addition, the minimum inhibitory concentration (MIC) against Staphylococcus aureus [1] and with Bacillus cereus was 1.56 µg/mL (≈ 0.737 µM) in each case.
Regarding `Fc1ccccc1-n1cc(CNc2ccccc2-c2nnc(-c3ccccc3)o2)nn1`, the zone of inhibition at 1000 µg/mL in the assay with Pseudomonas aeruginosa, in the assay on Bacillus subtilis, in the assay on Staphylococcus aureus [2] and with Escherichia coli was 2.5 mm in each case.
As to `CC(C)C[C@H](NC(=O)CNC(=O)C(C)(C)NC(=O)[C@@H](NC(=O)C(C)(C)NC(=O)[C@H](CCC(N)=O)NC(=O)[C@H](C)NC(=O)C(C)(C)NC(=O)[C@H](C)NC(=O)C(C)(C)NC(=O)[C@@H]1CCN(C(=O)C(C)(C)n2cc(-c3cc(C(F)(F)F)cc(C(F)(F)F)c3)nn2)C1)C(C)C)C(=O)NC(C)(C)C(=O)N1CCC[C@@H]1C(=O)N[C@H](C(=O)NC(C)(C)C(=O)NC(C)(C)C(=O)N[C@@H](CCC(N)=O)C(=O)N[C@@H](CCC(N)=O)C(=O)N[C@H](CO)Cc1ccccc1)C(C)C`, the IC50 in the assay with KB is 2.9 µg/mL (≈ 1.33 µM). The minimal inhibitory concentration (MIC) with Staphylococcus aureus [1] and against Bacillus cereus was 1.56 µg/mL (≈ 0.714 µM) each time.
As for `CC(=O)C(C)(C)C(=O)N1CC[C@@H](C(=O)NC(C)(C)C(=O)N[C@@H](C)C(=O)NC(C)(C)C(=O)N[C@@H](C)C(=O)N[C@@H](CCC(N)=O)C(=O)NC(C)(C)C(=O)N[C@H](C(=O)NC(C)(C)C(=O)NCC(=O)N[C@@H](CC(C)C)C(=O)NC(C)(C)C(=O)N2CCC[C@@H]2C(=O)N[C@H](C(=O)NC(C)(C)C(=O)NC(C)(C)C(=O)N[C@@H](CCC(N)=O)C(=O)N[C@@H](CCC(N)=O)C(=O)N[C@H](CO)Cc2ccccc2)C(C)C)C(C)C)C1`, the IC50 with KB turned out to be 1.56 µg/mL (≈ 0.801 µM). In addition, the minimum inhibitory concentration (MIC) with Staphylococcus aureus [1] and against Bacillus cereus was 1.56 µg/mL (≈ 0.801 µM) throughout.
As for `c1ccc(-c2nnc(-c3ccccc3NCc3cn(-c4ccccc4)nn3)o2)cc1`, the zone of inhibition at 1000 µg/mL in the assay with Pseudomonas aeruginosa, with Bacillus subtilis, in the assay on Staphylococcus aureus [2] and in the assay with Escherichia coli was 2.5 mm each time.
